Laboratory results published in patent US8846657B2, “Substituted imidazopyridines as HDM2 inhibitors” (Merck Sharp & Dohme Corp., priority 2012, dated 2014).

Each compound was assayed against HDM2 (Homo sapiens (Human), UniProt Q00987) (assay: HDM2 FRET assay (inhibition of p53 peptide binding to HDM2)). Details: read-out: FRET IC50.
Sequence of HDM2 (Q00987 17-125): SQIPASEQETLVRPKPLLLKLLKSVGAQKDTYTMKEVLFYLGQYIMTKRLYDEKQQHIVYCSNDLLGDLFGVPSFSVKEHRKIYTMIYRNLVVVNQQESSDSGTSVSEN
Excerpt: Methods: An HDM2 FRET assay was developed to assess the compounds' inhibitory activity towards binding of p53 protein. […] Ratio of em520/em495 was used to calculate % inhibition and to obtain IC50 with 4-parameter logistic equation.
Concentration of compound was plotted against em520/Cem495 ratio signal. To generate IC50 values, the dose-response curves were fitted to a standard sigmoidal curve and IC50 values were derived by nonlinear regression analysis.

Row | SMILES | IC50
1 | C[C@H]1CC[C@H](Cn2c(N3CCC[C@H]3C(F)(F)F)nc3cc(-c4nnn[nH]4)nc(-c4cncc(Cl)c4)c32)CC1 [Example 14.1, 4-(5-chloropyridin-3-yl)-3-[(trans-4-methylcyclohexyl)methyl]-6-(1H-tetrazol-5-yl)-2-[(2S)-2-(trifluoromethyl)pyrrolidin-1-yl]-3H-imidazo[4,5-c]pyridine] | < 1 nM
2 | C[C@H]1CC[C@H](Cn2c(N3CCO[C@@H]4CCC[C@H]43)nc3cc(-c4nnn[nH]4)nc(-c4cncc(Cl)c4)c32)CC1 [Example 14.4, 4-(5-chloropyridin-3-yl)-2-[(4aR,7aR)-hexahydrocyclopenta[b][1,4]oxazin-4(4aH)-yl]-3-[(trans-4-methylcyclohexyl)methyl]-6-(1H-tetrazol-5-yl)-3H-imidazo[4,5-c]pyridine] | < 1 nM

Same assay, conditions: read-out: FRET IC50; 0.5 nM HDM2 (residues 17-125), 3 nM FITC peptide, 2 h at room temperature; values rounded to the nearest integer

Row | SMILES | IC50
3 | COCCO[C@@H]1C[C@@H](C(C)C)N(c2nc3cc(-c4noc(=O)[nH]4)nc(-c4cncc(Cl)c4)c3n2C[C@H]2CC[C@H](C)CC2)C1 [Example 3.144, 3-{4-(5-chloropyridin-3-yl)-2-[(2S,4R)-4-(2-methoxyethoxy)-2-(1-methylethyl)-pyrrolidin-1-yl]-3-[(trans-4-methylcyclohex-yl)methyl]-3H-imidazo[4,5-c]pyridin-6-yl}-1,2,4-oxadiazol-5(4H)-one] | < 1 nM
4 | C[C@H]1CC[C@H](Cn2c(N3CCOC[C@H]3c3ccccc3)nc3cc(-c4noc(=O)[nH]4)nc(-c4cncc(Cl)c4)c32)CC1 [Example 2.1, 3-{4-(5-chloropyridin-3-yl)-3-[(trans-4-methylcyclohexyl)methyl]-2-[(3R)-3-phenylmorpholin-4-yl]-3H-imidazo[4,5-c]pyridin-6-yl}-1,2,4-oxadiazol-5(4H)-one] | < 1 nM
5 | CO[C@@H]1C[C@@H](C(C)C)N(c2nc3cc(-c4noc(=O)[nH]4)nc(-c4cncc(Cl)c4)c3n2C[C@H]2CC[C@H](C)CC2)C1 [Example 3.90, 3-{4-(5-chloropyridin-3-yl)-2-[(2S,4R)-4-methoxy-2-(propan-2-yl)pyrrolidin-1-yl]-3-[(trans-4-methylcyclohexyl)methyl]-3H-imidazo[4,5-d]pyridin-6-yl}-1,2,4-oxadiazol-5(4H)-one] | < 1 nM
6 | C[C@H]1CC[C@H](Cn2c(N3CCC[C@H]3c3nccs3)nc3cc(-c4noc(=O)[nH]4)nc(-c4cncc(Cl)c4)c32)CC1 [Example 3.81, 3-{4-(5-chloropyridin-3-yl)-3-[(trans-4-methylcyclohex-yl)methyl]-2-[(2S)-2-(1,3-thiazol-2-yl)pyrrolidin-1-yl]-3H-imidazo[4,5-c]pyridin-6-yl}-1,2,4-oxadiazol-5(4H)-one] | < 1 nM
